Test results as given in the supplement of paper PMC11061612.

Columns and labels:
AZD8186 = compound: C[C@@H](Nc1cc(F)cc(F)c1)c1cc(C(=O)N(C)C)cc2c(=O)cc(N3CCOCC3)oc12 [AZD8186]
Outline: (§1)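 Cancer cell lines in 1536-well plates (7.5 μl DMEM/F12 or RPMI, 10% FBS) were held 24 hours at 37°C and 5% CO2 and then dosed for 72 hours at a final DMSO of typically 0.2%. Viability was taken from CellTiter-Glo 2.0 luminescence, scaled between blank-well and DMSO-well means. Curves were fitted as two-parameter logistic models with a non-linear mixed effects model, from which the single-agent IC50 was taken.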

Savolitinib = compound: C[C@@H](c1ccc2nccn2c1)n1nnc2ncc(-c3cnn(C)c3)nc21 [Savolitinib]; details: max 1 µM
Outline: as §1

Prexasertib = compound: COc1cccc(OCCCN)c1-c1cc(Nc2cnc(C#N)cn2)n[nH]1 [Prexasertib]; details: max 1 µM
Outline: as §1

AZD2811 = compound: CCN(CCO)CCCOc1ccc2c(Nc3cc(CC(=O)Nc4cccc(F)c4)[nH]n3)ncnc2c1 [AZD2811]; details: max 1 µM
Outline: as §1

AZD5991 = compound: Cc1c2c(nn1C)CSCc1cc(n(C)n1)CSc1cc(c3ccccc3c1)OCCCc1c(C(=O)O)n(C)c3c-2c(Cl)ccc13 [AZD5991]; details: max 1 µM
Outline: as §1

Selumetinib = compound: Cn1cnc2c(F)c(Nc3ccc(Br)cc3Cl)c(C(=O)NOCCO)cc21 [Selumetinib]; details: max 10 µM
Outline: as §1

SG3199 = compound: CC1=CN2[C@@H](C1)C=NC3=CC(=C(C=C3C2=O)OC)OCCCCCOC4=C(C=C5C(=C4)N=C[C@@H]6CC(=CN6C5=O)C)OC [SG3199]; details: max 0.001 µM
Outline: as §1

Crizotinib = compound: C[C@@H](Oc1cc(-c2cnn(C3CCNCC3)c2)cnc1N)c1c(Cl)ccc(F)c1Cl [Crizotinib]; details: max 10 µM
Outline: as §1

AZD1390 = compound: CC(C)n1c(=O)n(C)c2cnc3cc(F)c(-c4ccc(OCCCN5CCCCC5)nc4)cc3c21 [AZD1390]; details: max 0.3 µM
Outline: as §1

Gefitinib = compound: COc1cc2ncnc(Nc3ccc(F)c(Cl)c3)c2cc1OCCCN1CCOCC1 [Gefitinib]; details: max 10 µM
Outline: as §1

SN-38 = compound: CCc1c2c(nc3ccc(O)cc13)-c1cc3c(c(=O)n1C2)COC(=O)[C@]3(O)CC [SN-38]; details: max 0.3 µM
Outline: as §1

AZD5153 = compound: COc1nnc2ccc(N3CCC(c4ccc(OCCN5CCN(C)C(=O)[C@H]5C)cc4)CC3)nn12 [AZD5153]; details: max 1 µM
Outline: as §1

Trametinib = compound: CC(=O)Nc1cccc(-n2c(=O)n(C3CC3)c(=O)c3c(Nc4ccc(I)cc4F)n(C)c(=O)c(C)c32)c1 [Trametinib]; details: max 1 µM
Outline: as §1

Dasatinib = compound: CC1=C(C(=CC=C1)Cl)NC(=O)C2=CN=C(S2)NC3=CC(=NC(=N3)C)N4CCN(CC4)CCO [Dasatinib]; details: max 2 µM
Outline: as §1

AZD1775 = compound: C=CCn1c(=O)c2cnc(Nc3ccc(N4CCN(C)CC4)cc3)nc2n1-c1cccc(C(C)(C)O)n1 [AZD1775]
Outline: as §1

Alisertib = compound: COc1cc(Nc2ncc3c(n2)-c2ccc(Cl)cc2C(c2c(F)cccc2OC)=NC3)ccc1C(=O)O [Alisertib]; details: max 10 µM
Outline: as §1

Taselisib = compound: Cc1nc(-c2cn3c(n2)-c2ccc(-c4cnn(C(C)(C)C(N)=O)c4)cc2OCC3)n(C(C)C)n1 [Taselisib]; details: max 10 µM
Outline: as §1

Capivasertib = compound: C1CN(CCC1(C(=O)N[C@@H](CCO)C2=CC=C(C=C2)Cl)N)C3=NC=NC4=C3C=CN4 [Capivasertib]; details: max 10 µM
Outline: as §1

Palbociclib = compound: CC(=O)c1c(C)c2cnc(Nc3ccc(N4CCNCC4)cn3)nc2n(C2CCCC2)c1=O [Palbociclib]; details: max 10 µM
Outline: as §1

AZD6738 = compound: C[C@@H]1COCCN1C2=NC(=NC(=C2)C3(CC3)[S@](=N)(=O)C)C4=C5C=CNC5=NC=C4 [AZD6738]; details: max 10 µM
Outline: as §1

AZD4320 = compound: CN(CC[C@H](CSC1=CC=CC=C1)NC2=C(C=C(C=C2)S(=O)(=O)NC(=O)C3=CC=C(C=C3)N4CCC(CC4)[C@H](C5=CC=CC=C5C6=CC=C(C=C6)Cl)O)S(=O)(=O)C(F)(F)F)CCO [AZD4320]; details: max 1 µM
Outline: as §1

AZD7648 = compound: Cc1cc2ncnn2cc1Nc1ncc2c(n1)n(C1CCOCC1)c(=O)n2C [AZD7648]; details: max 10 µM
Outline: as §1

Olaparib = compound: O=C(c1cc(Cc2n[nH]c(=O)c3ccccc23)ccc1F)N1CCN(C(=O)C2CC2)CC1 [Olaparib]; details: max 10 µM
Outline: as §1

Venetoclax = compound: CC1(C)CCC(CN2CCN(c3ccc(C(=O)NS(=O)(=O)c4ccc(NCC5CCOCC5)c([N+](=O)[O-])c4)c(Oc4cnc5[nH]ccc5c4)c3)CC2)=C(c2ccc(Cl)cc2)C1 [Venetoclax]; details: max 1 µM
Outline: as §1

AZD0156 = compound: CN(C)CCCOc1ccc(-c2ccc3ncc4c(c3c2)n(C2CCOCC2)c(=O)n4C)cn1 [AZD0156]
Outline: as §1

Doxorubicin = compound: COc1cccc2c1C(=O)c1c(O)c3c(c(O)c1C2=O)C[C@@](O)(C(=O)CO)C[C@@H]3O[C@H]1C[C@H](N)[C@H](O)[C@H](C)O1 [Doxorubicin]; details: max 1 µM
Outline: as §1

Lapatinib = compound: CS(=O)(=O)CCNCc1ccc(-c2ccc3ncnc(Nc4ccc(OCc5cccc(F)c5)c(Cl)c4)c3c2)o1 [Lapatinib]; details: max 10 µM
Outline: as §1

Etoposide = compound: COc1cc([C@@H]2c3cc4c(cc3[C@@H](O[C@@H]3O[C@@H]5CO[C@@H](C)O[C@H]5[C@H](O)[C@H]3O)[C@H]3COC(=O)[C@H]23)OCO4)cc(OC)c1O [Etoposide]; details: max 10 µM
Outline: as §1

Carboplatin = compound: C1CC(C1)(C(=O)[O-])C(=O)[O-].N.N.[Pt+2] [Carboplatin]; details: max 10 µM
Outline: as §1

MK-2206 = compound: NC1(c2ccc(-c3nc4ccn5c(=O)[nH]nc5c4cc3-c3ccccc3)cc2)CCC1 [MK-2206]; details: max 10 µM
Outline: as §1

Paclitaxel = compound: CC(=O)O[C@H]1C(=O)[C@@]2(C)[C@H]([C@H](OC(=O)c3ccccc3)[C@]3(O)C[C@H](OC(=O)[C@H](O)[C@@H](NC(=O)c4ccccc4)c4ccccc4)C(C)=C1C3(C)C)[C@]1(OC(C)=O)CO[C@@H]1C[C@@H]2O [Paclitaxel]; details: max 3 µM
Outline: as §1

[1] = compound: O=C(Nc1ccc2[nH]nc(-c3ccncc3)c2c1)[C@@H]1CCN(CC(=O)N2CCN(c3ccc(-c4ncccn4)cc3)CC2)C1; details: max 5 µM
Outline: as §1

5-Fluorouracil = compound: O=c1[nH]cc(F)c(=O)[nH]1 [5-Fluorouracil]; details: max 20 µM
Outline: as §1

SRA737 = compound: N#Cc1cnc(Nc2cc(NC[C@H]3CNCCO3)c(C(F)(F)F)cn2)cn1 [SRA737]; details: max 10 µM
Outline: as §1

AZD5363 = compound: C1CN(CCC1(C(=O)N[C@@H](CCO)C2=CC=C(C=C2)Cl)N)C3=NC=NC4=C3C=CN4 [AZD5363]; details: max 10 µM
Outline: as §1

Gemcitabine = compound: Nc1ccn([C@@H]2O[C@H](CO)[C@@H](O)C2(F)F)c(=O)n1 [Gemcitabine]; details: max 0.3 µM
Outline: as §1

Cell Line	IC50, cell viability 72 h (AZD8186; max 3 µM)	IC50, cell viability 72 h (Savolitinib)	IC50, cell viability 72 h (Prexasertib)	IC50, cell viability 72 h (AZD2811)	IC50, cell viability 72 h (AZD5991)	IC50, cell viability 72 h (Selumetinib)	IC50, cell viability 72 h (SG3199)	IC50, cell viability 72 h (Crizotinib)	IC50, cell viability 72 h (AZD1390)	IC50, cell viability 72 h (Gefitinib)	IC50, cell viability 72 h (SN-38)	IC50, cell viability 72 h (AZD5153)	IC50, cell viability 72 h (Trametinib)	IC50, cell viability 72 h (Dasatinib)	IC50, cell viability 72 h (AZD1775; max 3 µM)	IC50, cell viability 72 h (Alisertib)	IC50, cell viability 72 h (Taselisib)	IC50, cell viability 72 h (Capivasertib)	IC50, cell viability 72 h (Palbociclib)	IC50, cell viability 72 h (AZD6738)	IC50, cell viability 72 h (AZD4320)	IC50, cell viability 72 h (AZD7648)	IC50, cell viability 72 h (Olaparib)	IC50, cell viability 72 h (Venetoclax)	IC50, cell viability 72 h (AZD0156; max 3 µM)	IC50, cell viability 72 h (Doxorubicin)	IC50, cell viability 72 h (Lapatinib)	IC50, cell viability 72 h (Etoposide)	IC50, cell viability 72 h (Carboplatin)	IC50, cell viability 72 h (AZD8186; max 10 µM)	IC50, cell viability 72 h (MK-2206)	IC50, cell viability 72 h (Paclitaxel)	IC50, cell viability 72 h [1]	IC50, cell viability 72 h (5-Fluorouracil)	IC50, cell viability 72 h (SRA737)	IC50, cell viability 72 h (AZD5363)	IC50, cell viability 72 h (Gemcitabine)	IC50, cell viability 72 h (AZD1775; max 1 µM)	IC50, cell viability 72 h (AZD0156; max 1 µM)
HEC-1 (Endometrial Carcinoma)	> 3 µM	> 1 µM	0.493 µM	> 1 µM	> 1 µM	> 10 µM	> 0.001 µM	> 10 µM	> 0.3 µM	> 10 µM	> 0.3 µM	0.881 µM	> 1 µM	> 2 µM	1.81 µM	> 10 µM	> 10 µM	> 10 µM	> 10 µM	> 10 µM	> 1 µM	> 10 µM	> 10 µM	> 1 µM	> 3 µM	> 1 µM	> 10 µM												
KE-37 (T-Lymphoblastic Leukemia)	> 3 µM	> 1 µM	0.00458 µM	0.0205 µM	0.267 µM	> 10 µM	> 0.001 µM	3.22 µM	> 0.3 µM	> 10 µM	0.00186 µM	0.21 µM	> 1 µM	> 2 µM	0.129 µM	0.125 µM	3.11 µM	1.1 µM	3.85 µM	0.403 µM	0.0283 µM	8.54 µM	> 10 µM	> 1 µM	> 3 µM	0.0538 µM	8.53 µM												
LB996-RCC (Kidney Carcinoma)	> 3 µM	> 1 µM	0.167 µM	> 1 µM	> 1 µM	> 10 µM	> 0.001 µM	> 10 µM	> 0.3 µM	> 10 µM	0.00864 µM	> 1 µM	> 1 µM	0.188 µM	0.403 µM	4.59 µM	1.74 µM	5.32 µM	> 10 µM	9.94 µM	> 1 µM	> 10 µM	> 10 µM	> 1 µM	> 3 µM	0.625 µM	> 10 µM												
SK-PN-DW (Other Solid Carcinomas)		> 1 µM	0.00583 µM	0.191 µM	0.07 µM	> 10 µM	> 0.001 µM	4.41 µM	> 0.3 µM	> 10 µM	0.00405 µM	0.562 µM	> 1 µM	> 2 µM	1.59 µM	0.119 µM	4.42 µM		> 10 µM	0.558 µM	> 1 µM	> 10 µM	> 10 µM	0.757 µM	> 3 µM	0.199 µM	> 10 µM	1.53 µM	> 10 µM	> 10 µM	> 10 µM	0.011 µM	> 5 µM	5.01 µM	0.986 µM	4.78 µM	> 0.3 µM		
TE-8 (Esophageal Squamous Cell Carcinoma)		> 1 µM	0.0243 µM	> 1 µM	> 1 µM	> 10 µM	> 0.001 µM	> 10 µM	> 0.3 µM	> 10 µM	0.169 µM	> 1 µM	0.633 µM	0.362 µM		5.14 µM	2.65 µM		> 10 µM	4.15 µM	> 1 µM	> 10 µM	> 10 µM	> 1 µM		> 1 µM	> 10 µM	> 10 µM	> 10 µM	> 10 µM	> 10 µM	0.109 µM	3.84 µM	> 20 µM	> 10 µM	> 10 µM	> 0.3 µM	0.503 µM	> 1 µM
VAL (B-Cell Non-Hodgkin's Lymphoma)		> 1 µM	0.00612 µM	0.141 µM	0.446 µM	> 10 µM	> 0.001 µM	4.62 µM	> 0.3 µM	> 10 µM	0.00177 µM	0.0618 µM	> 1 µM	0.0919 µM	0.416 µM	0.0606 µM	2.28 µM		2.66 µM	1.03 µM	0.0365 µM	8.52 µM	8.57 µM	0.0315 µM	> 3 µM	0.028 µM	> 10 µM	0.261 µM	> 10 µM	2.45 µM	1.87 µM	0.0573 µM	> 5 µM	> 20 µM	1.47 µM	5.13 µM	0.00894 µM		
